Drawing on patent US9693997B2, “Antiviral compounds” (priority 2013, dated 2017), this text covers EC50 for 28 molecules.

Where a name gives a salt, the structure may show the parent alone. Read-outs that look alike come from different tables or passages of the source.

Assay [1] relates to pseudotyped VSV G particles (VSVpp) in Huh7-high CD81 cells. The assay can be described thus: microbe, parasite or virus in culture. The class given is cell-based, vesicular stomatitis virus.
Assay [2] relates to Pseudotyped HCV GT1b particles (HCVpp), entry into Huh7-high CD81 cells. The assay can be described thus: microbe, parasite or virus in culture. The format is cell-based, HCV GT1b Con1 strain.
Where [3] appears, read: Vesicular stomatitis virus, 72 h, read-out: VSVpp (EC50, μM).
Where [4] appears, read: Hepatitis C virus, GT1B, 72 h, read-out: HCVpp GT-1b (EC50, μM).

With `Nc1nc(Nc2cc(Cl)c(-c3ccc(Cl)cc3Cl)c(Cl)c2)n[nH]1` [Compound 124, N-3-(2,6,2′,4′-Tetrachloro-biphenyl-4-yl)-1H-[1,2,4]triazole-3,5-diamine], the EC50 in assay [1] (setting [3]) is 4.49 µM; in assay [2] (setting [4]) it was 1.01 µM.

On to `Nc1nc(Nc2ccc(-c3ccccc3)c(C(F)(F)F)c2)n[nH]1` [Compound 149, N*3*-(2-Trifluoromethyl-biphenyl-4-yl)-1H-[1,2,4]triazole-3,5-diamine], for which the figures for the EC50 in assay [1] (setting [3]) and in assay [2] (setting [4]) were 29.2 µM and 0.581 µM, respectively.

Turning to `Nc1nc(Nc2cc(Cl)c(-c3ccc(S(N)(=O)=O)cc3)c(C(F)(F)F)c2)n[nH]1` [Compound 171, 4′-(5-amino-1H-1,2,4-triazol-3-ylamino)-2′-chloro-6′-(trifluoromethyl)biphenyl-4-sulfonamide], the EC50 is 5.23 µM in assay [1] (setting [3]) and 0.028 µM in assay [2] (setting [4]).

With `CC(C)(C)CCN1CCCC(Oc2ccc(-c3c(Cl)cc(Nc4n[nH]c(N)n4)cc3C(F)(F)F)cc2)C1` (centres unmarked) [Compound 131, N*3*-{6-Chloro-4′-[1-(3,3-dimethyl-butyl)-piperidin-3-yloxy]-2-trifluoromethyl-biphenyl-4-yl}-1H-[1,2,4]triazole-3,5-diamine hydrochloride], the EC50 was 7.02 µM in assay [1] (setting [3]) and 0.095 µM in assay [2] (setting [4]).

Regarding `COCCN1CCC(Oc2ccc(-c3c(Cl)cc(Nc4n[nH]c(N)n4)cc3C(F)(F)F)cc2)CC1` [Compound 143, N*3*-{6-Chloro-4′-[1-(2-methoxy-ethyl)-piperidin-4-yloxy]-2-trifluoromethyl-biphenyl-4-yl}-1H-[1,2,4]triazole-3,5-diamine hydrochloride], the EC50 in assay [1] (setting [3]) came out at 8.98 µM; in assay [2] (setting [4]), 0.231 µM.

Regarding `Nc1nc(Nc2ccc(-c3ccccc3F)c(C(F)(F)F)c2)n[nH]1` [Compound 150, N*3*-(2′-Fluoro-2-trifluoromethyl-biphenyl-4-yl)-1H-[1,2,4]triazole-3,5-diamine], the figures for the EC50 in assay [1] (setting [3]) and in assay [2] (setting [4]) were 21.3 µM and 0.866 µM, respectively.

Turning to `CNCCOc1ccc(-c2c(Cl)cc(Nc3n[nH]c(N)n3)cc2C(F)(F)F)cc1` [Compound 126, N*3*-[6-Chloro-4′-(2-methylamino-ethoxy)-2-trifluoromethyl-biphenyl-4-yl]-1H-[1,2,4]triazole-3,5-diamine hydrochloride], the results for the 50% effective concentration (EC50) in assay [1] (setting [3]) and in assay [2] (setting [4]) were over 10 µM and 0.088 µM, respectively.

For the molecule `CC(C)C(=O)Nc1cccc(-c2c(Cl)cc(Nc3n[nH]c(N)n3)cc2Cl)c1` [Compound 252, N-[4′-(5-amino-1H-[1,2,4]triazol-3-ylamino)-2′,6′-dichloro-biphenyl-3-yl]-isobutyramide], the EC50 in assay [1] (setting [3]) was over 10 µM; in assay [2] (setting [4]) it was 0.067 µM.

With `Nc1nc(Nc2cc(Cl)c(-c3ccccc3)c(C(F)(F)F)c2)n[nH]1` [Compound 201, N3-(2-chloro-6-(trifluoromethyl)biphenyl-4-yl)-1H-1,2,4-triazole-3,5-diamine 2,2,2-trifluoroacetate], the EC50 in assay [1] (setting [3]) amounted to 58.3 µM; in assay [2] (setting [4]), 0.405 µM.

With `CC(C)(C)N1CC(OC(=O)Nc2ccc(-c3c(Cl)cc(Nc4n[nH]c(N)n4)cc3C(F)(F)F)cc2)C1` [Compound 236, [4′-(5-amino-1H-[1,2,4]triazol-3-ylamino)-2′-chloro-6′-trifluoromethyl-biphenyl-4-yl]-carbamic acid 1-tert-butyl-azetidin-3-yl ester], the EC50 in assay [1] (setting [3]) was over 10 µM; in assay [2] (setting [4]) it was 0.045 µM.

Consider `C[C@H](NS(C)(=O)=O)c1ccc(-c2c(Cl)cc(Nc3n[nH]c(N)n3)cc2C(F)(F)F)cc1` [Compound 13, N—{(S)-1-[4′-(5-Amino-1H-[1,2,4]triazol-3-ylamino)-2′-chloro-6′-trifluoromethyl-biphenyl-4-yl]-ethyl}-methanesulfonamide], for which the EC50 was 21 µM in assay [1] (setting [3]) and 0.027 µM in assay [2] (setting [4]).

On to `CC(C)(C)OC(=O)N1CCC[C@H]1COc1ccc(-c2c(Cl)cc(Nc3n[nH]c(N)n3)cc2C(F)(F)F)cc1` [Compound 277, (S)-2-[4′-(5-Amino-1H-[1,2,4]triazol-3-ylamino)-2′-chloro-6′-trifluoromethyl-biphenyl-4-yloxymethyl]-pyrrolidine-1-carboxylic acid tert-butyl ester], for which the EC50 in assay [1] (setting [3]) came to 27.9 µM; in assay [2] (setting [4]), 0.312 µM.

With `Nc1nc(Nc2ccc(-c3ccc(F)cc3)c(C(F)(F)F)c2)n[nH]1` [Compound 151, N*3*-(4′-Fluoro-2-trifluoromethyl-biphenyl-4-yl)-1H-[1,2,4]triazole-3,5-diamine], the values for the EC50 in assay [1] (setting [3]) and in assay [2] (setting [4]) were 26.5 µM and 0.356 µM, respectively.

As for `CCCOC(=O)Nc1ccc(-c2c(Cl)cc(Nc3n[nH]c(N)n3)cc2C(F)(F)F)cc1` [Compound 237, [4′-(5-amino-1H-[1,2,4]triazol-3-ylamino)-2′-chloro-6′-trifluoromethyl-biphenyl-4-yl]-carbamic acid propyl ester], the EC50 in assay [1] (setting [3]) came to 3.67 µM; in assay [2] (setting [4]) it was 0.058 µM.

As to `Nc1nc(Nc2cc(Cl)c(-c3ccc([N+](=O)[O-])cc3)c(Cl)c2)n[nH]1` [Compound 83], the EC50 in assay [1] (setting [3]) worked out at 4.34 µM; in assay [2] (setting [4]), 0.532 µM.

On to `COc1ccc(-c2c(Cl)cc(Nc3n[nH]c(N)n3)cc2C(F)(F)F)cc1S(=O)(=O)NC1CCN(C(=O)OC(C)(C)C)CC1` [Compound 221, 4-[4′-(5-Amino-1H-[1,2,4]triazol-3-ylamino)-6′-chloro-4-methoxy-2′-trifluoromethyl-biphenyl-3-sulfonylamino]-piperidine-1-carboxylic acid tert-butyl ester], for which the results for the EC50 in assay [1] (setting [3]) and in assay [2] (setting [4]) were 4.55 µM and 0.003 µM, respectively.

In the case of `Nc1nc(Nc2cc(Cl)c(-c3ccc(S(=O)(=O)N4CC(O)C4)cc3)c(C(F)(F)F)c2)n[nH]1` [Compound 191, 1-(4′-(5-amino-1H-1,2,4-triazol-3-ylamino)-2′-chloro-6′-(trifluoromethyl)biphenyl-4-ylsulfonyl)azetidin-3-ol], the EC50 worked out at 25 µM in assay [1] (setting [3]) and 0.069 µM in assay [2] (setting [4]).

`CCCCC(=O)Nc1ccc(-c2ccc(Nc3n[nH]c(N)n3)cc2)cc1` [Compound 53, Pentanoic acid [4′-(5-amino-1H-[1,2,4]triazol-3-ylamino)-biphenyl-4-yl]-amide]: the results for the EC50 in assay [1] (setting [3]) and in assay [2] (setting [4]) were 4.38 µM and 5.61 µM, respectively.

For `CC(C)(C)OC(=O)N1CCC(Oc2cccc(-c3c(Cl)cc(Nc4n[nH]c(N)n4)cc3C(F)(F)F)c2)CC1` [Compound 21, 4-[4′-(5-Amino-1H-[1,2,4]triazol-3-ylamino)-2′-chloro-6′-trifluoromethyl-biphenyl-3-yloxy]-piperidine-1-carboxylic acid tert-butyl ester], the EC50 in assay [1] (setting [3]) is over 10 µM; in assay [2] (setting [4]) it was 0.039 µM.

As to `CC(C)N1CC(C)(NS(=O)(=O)c2ccc(-c3c(Cl)cc(Nc4n[nH]c(N)n4)cc3C(F)(F)F)cc2)C1` [Compound 211, 4′-(5-amino-1H-1,2,4-triazol-3-ylamino)-2′-chloro-N-(1-isopropyl-3-methylazetidin-3-yl)-6′-(trifluoromethyl)biphenyl-4-sulfonamide; compound with trifluoro-acetic acid], the EC50 in assay [1] (read-out: VSVpp (EC50)) was 3.65 µM; in assay [2] (read-out: HCVpp GT-1b (EC50)), 0.012 µM.

Take `Nc1nc(Nc2cc(Cl)c(-c3ccc(OCCN4CCOCC4)cc3)c(Cl)c2)n[nH]1` [Compound 281, N*3*-[2,6-Dichloro-4′-(2-morpholin-4-yl-ethoxy)-biphenyl-4-yl]-1H-[1,2,4]triazole-3,5-diamine]: the EC50 in assay [1] (setting [3]) was 23.4 µM; in assay [2] (setting [4]) it was 0.244 µM.

On to `Nc1nc(Nc2cc(Cl)c(-c3ccc(OCc4ccccn4)cc3)c(Cl)c2)n[nH]1` [Compound 284, N*3*-[2,6-Dichloro-4′-(pyridin-2-ylmethoxy)-biphenyl-4-yl]-1H-[1,2,4]triazole-3,5-diamine], for which the EC50 was over 10 µM in assay [1] (setting [3]) and 0.576 µM in assay [2] (setting [4]).

`COc1ccc(-c2c(Cl)cc(Nc3n[nH]c(N)n3)cc2C(F)(F)F)cc1C(F)(F)F` [Compound 231, N*3*-(6-Chloro-4′-methoxy-2,3′-bis-trifluoromethyl-biphenyl-4-yl)-1H-[1,2,4]triazole-3,5-diamine]: the EC50 in assay [1] (setting [3]) was over 10 µM; in assay [2] (setting [4]), 0.41 µM.

For the molecule `CS(=O)(=O)c1ccc(-c2c(Cl)cc(Nc3n[nH]c(N)n3)cc2Cl)cc1F` [Compound 121, N-3-(2,6-Dichloro-3′-fluoro-4′-methanesulfonyl-biphenyl-4-yl)-1H-[1,2,4]triazole-3,5-diamine], the figures for the EC50 in assay [1] (setting [3]) and in assay [2] (setting [4]) were 0.08 µM and 0.068 µM, respectively.

With `CS(=O)(=O)CCCN1CCC(Oc2ccc(-c3c(Cl)cc(Nc4n[nH]c(N)n4)cc3C(F)(F)F)cc2)CC1` [Compound 142, N*3*-{6-Chloro-4′-[1-(3-methanesulfonyl-propyl)-piperidin-4-yloxy]-2-trifluoromethyl-biphenyl-4-yl}-1H-[1,2,4]triazole-3,5-diamine hydrochloride], the EC50 was over 10 µM in assay [1] (setting [3]) and 0.242 µM in assay [2] (setting [4]).

Regarding `COc1ccc(-c2c(Cl)cc(Nc3n[nH]c(N)n3)cc2C(F)(F)F)cc1S(N)(=O)=O` [Compound 180, 4′-(5-amino-1H-1,2,4-triazol-3-ylamino)-2′-chloro-4-methoxy-6′-(trifluoromethyl)biphenyl-3-sulfonamide], the EC50 in assay [2] (setting [4]) was 0.036 µM.

In the case of `COc1ccc(-c2c(Cl)cc(Nc3n[nH]c(N)n3)cc2C(F)(F)F)cc1S(=O)(=O)NC1CCOCC1` [Compound 168, 4′-(5-amino-1H-1,2,4-triazol-3-ylamino)-2′-chloro-4-methoxy-N-(tetrahydro-2H-pyran-4-yl)-6′-(trifluoromethyl)biphenyl-3-sulfonamide], in assay [2] (setting [4]), the EC50 is 0.011 µM.

As for `COc1ccc(-c2c(Cl)cc(Nc3n[nH]c(N)n3)cc2C(F)(F)F)cc1S(=O)(=O)NC1CCNCC1` [Compound 222, 4′-(5-Amino-1H-[1,2,4]triazol-3-ylamino)-6′-chloro-4-methoxy-2′-trifluoromethyl-biphenyl-3-sulfonic acid piperidin-4-ylamide; compound with trifluoro-acetic acid], the EC50 in assay [2] (read-out: HCVpp GT-1b (EC50)) came to 0.014 µM.

In general, EC50 refers to the concentration that produces a half-maximal response.
